# According to US9173875B2, “Treatment for nicotine-induced lung disease using peroxisome proliferator-activated receptor gamma agonists” (Los Angeles Biomedical Research Institute at Harbor-UCLA …, priority 2006, dated 2015):
# Key:
# [1] = tested on: ATII cells; experiment: Phospholipid synthesis ([3H]choline incorporation) by ATII cells treated in vitro; format: cell-based, rat; conditions: nicotine 1×10^−9 M, 24 h, in vitro
# Experimental: Isolated ATII cells were cultured in DMEM+10% FBS in 6- and 96-well plates, 100-mm dishes, and T-75 flasks, as needed, and maintained at 37° C. in a humidified incubator containing 5% CO2-95% air. At 80-90% confluence, cells were processed for cell proliferation, differentiation, and metabolic studies (see below).
# Incorporation of [methyl-3H]choline chloride (NEN Dupont) into saturated phosphatidylcholine was determined in monolayers of cultured explants and ATII cells. […] After incubation, explants and cells were washed three times with ice-cold PBS. The explants and the scraped cells were thoroughly homogenized, and the cellular lipids were extracted with chloroform-methanol (2:1) (Bligh and Dyer (1959) Can. J. Biochem. Physiol., 37: 911-917). The organic phase was dried under a stream of nitrogen at 60° C., resuspended in 0.5 ml of carbon tetrachloride containing 3.5 mg of osmium tetroxide, and left at room temperature for 15 min. The reaction mixture was redried under nitrogen and resuspended in 70 μl of chloroform-methanol (9:1, vol/vol). The lipid extracts were transferred to silica gel plates (Kodak, Rochester, N.Y.) and developed in a chloroform-methanolwater (65:25:4) solvent system. Pure dipalmitoyl phosphatidylcholine was used as the chromatographic standard. The developed plates were stained with bromothymol blue, blotted, and vacuum dried for 5 min at 90° C. Chromatogram spots corresponding to the migration of saturated phosphatidylcholine were scraped from the plates and counted by liquid scintillation spectrometry. The amounts of [methyl^3H]choline chloride incorporated into saturated phosphatidylcholine were expressed as disintegrations per minute per milligram of protein.
# [2] = tested on: fetal alveolar type II (ATII) cells; experiment: In vivo ATII cell proliferation assay (PCNA and SP-C double labeling) after in utero nicotine; parameters: species or system Sprague-Dawley rat
# [3] = biological target: T1, PTHrP receptor (Homo sapiens, UniProt Q03431); experiment: PTHrP receptor binding assay; conditions: nicotine 1×10^−6 M
# T1 construct: 10-12 μg membrane protein; endogenous in cells; host or cells: WI38 human embryonic lung fibroblasts (inferred; the assay text only says membrane protein)
# T1 sequence (Q03431 27-593): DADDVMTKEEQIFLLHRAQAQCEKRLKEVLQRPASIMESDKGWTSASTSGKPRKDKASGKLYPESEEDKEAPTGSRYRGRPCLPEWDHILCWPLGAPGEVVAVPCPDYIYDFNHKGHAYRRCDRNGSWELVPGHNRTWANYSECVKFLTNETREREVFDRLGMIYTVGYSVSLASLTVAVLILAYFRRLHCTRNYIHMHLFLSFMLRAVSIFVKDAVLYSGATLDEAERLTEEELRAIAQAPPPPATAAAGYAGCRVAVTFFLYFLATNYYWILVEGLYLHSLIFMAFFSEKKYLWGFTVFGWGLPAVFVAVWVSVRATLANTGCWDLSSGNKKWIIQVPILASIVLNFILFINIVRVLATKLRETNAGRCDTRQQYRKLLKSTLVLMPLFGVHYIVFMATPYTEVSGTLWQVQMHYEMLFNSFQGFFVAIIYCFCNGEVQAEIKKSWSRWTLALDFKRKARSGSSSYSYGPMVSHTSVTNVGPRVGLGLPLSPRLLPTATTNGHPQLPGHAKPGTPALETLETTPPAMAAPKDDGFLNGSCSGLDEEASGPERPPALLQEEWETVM
# Experimental: The receptor binding assay was carried out as previously described (Torday and Rehan (2002) Am. J. Physiol. Lung Cell Mol. Physiol. 283: L130-L135; Torday and Rehan (2003) Cell Biochem Biophys 37: 235-246). The assay mixture, in a total volume of 0.1 ml, contained 50 mM Tris.HCl (pH 7.4), 2 mM dithiothreitol, 10 mM EDTA, 10 μg/ml each of protease inhibitors (leupeptin, pepstatin, antipain, and aprotinin), 0.5 mM phenylmethylsulfonyl fluoride, 10 mg/ml BSA, 5 mM MgCl2, […] [1251]-Tyr34-PTHrP-(1-34) (specific activity 1,064 Ci/mmol), 10-12 μg membrane protein, and 1×10-10 to 1×10^−6 M PTHrP-(1-34). Triplicate samples were incubated for 30 min at 30° C. Reactions were stopped by the addition of 0.1 ml of homogenization buffer containing 20 mg/ml of BSA and placed in ice-cold water for 30 min, followed by centrifugation at 15,000 g for 1 min. The supernatant was aspirated, and the pellet was counted for radioactive content with a gamma counter (model 1470; Wallace, Gaithersburg, Md.). Nonspecific binding was determined in the presence of 1 μM nonradioactive PTHrP-(1-34). Specific binding of [^125I]-Tyr34-PTHrP-(1-34) was calculated as total binding minus nonspecific binding and expressed as femtomoles per milligrams of protein. […] The effect of nicotine (1×10^−6 M) on PTHrP receptor binding was examined without and with the nACh receptor antagonists D-tubocurarine, α-bungarotoxin, or mecamylamine (1×10^−9 to 1×10^−6 M).
# [4] = tested on: WI38 cells
# [5] = tested on: ATII cells; experiment: Western analysis of CCT-α and SP-B in ATII cells after in utero nicotine; format: in vivo, Sprague-Dawley rat
# Experimental: Pathogen-free timed (embryonic day 0=day of mating) pregnant Sprague-Dawley rats (200-250 g body wt) were obtained from Charles River (Hollister, Calif.) at embryonic day 3 and allowed to acclimatize until embryonic day 6. […] The fetuses were extracted by cesarean section, and the lungs were snap frozen for later analysis or processed for ATII cell or fibroblast culture. […] Louis, Mo.; 0.25 mg/kg). All studies were approved by the Los Angeles Biomedical Research Institute Institutional Review Board and were conducted in accordance with the National Institutes of Health Guide for the Care and Use of Laboratory Animals. Protein extraction and Western blot analysis for SP-B and choline phosphate cytidylyltransferase-α (CCT-α) were performed using standard methods. […] Chemicon) overnight at 4° C. The antibody for CCT-α (1:2,000 dilution) was a kind gift from Dr. […] (University of Iowa, Iowa City, Iowa). […] The density of the SP-B and CCT-α bands was quantified using a scanning densitometer (Eagle Eye, Stratagene).
# [6] = tested on: ATII cells; experiment: Western analysis of CCT-α and SP-B in ATII cells treated in vitro; format: cell-based, rat
# Experimental: Protein extraction and Western blot analysis for SP-B and choline phosphate cytidylyltransferase-α (CCT-α) were performed using standard methods. […] Equal amounts of the protein from the supernatant were dissolved in electrophoresis sample buffer and subjected to SDS-polyacrylamide (4-12% gradient) gel electrophoresis followed by electrophoretic transfer to a nitrocellulose membrane. The membrane was blocked with 5% milk in 1× Tris-buffered saline containing 0.1% Tween 20 for 1 h and then incubated with rabbit anti-human SP-B polyclonal antibody (1:1,000 dilution; Chemicon) overnight at 4° C. The antibody for CCT-α (1:2,000 dilution) was a kind gift from Dr. Mallampalli (University of Iowa, Iowa City, Iowa). Subsequently, the membrane was washed with 1× Tris-buffered saline+0.1% Tween 20 and incubated with a 1:3,000 dilution of anti-rabbit horseradish peroxidase-linked whole antibody immunoglobulin G (Amersham, Arlington Heights, Ill.) for 1 h at room temperature, washed again, and developed with a chemiluminescent substrate (ECL, Amersham) following the manufacturer's protocol. The density of the SP-B and CCT-α bands was quantified using a scanning densitometer (Eagle Eye, Stratagene).
# [7] = tested on: WI38 cells; experiment: Reversal experiment, immunofluorescence double staining (ADRP or lipid droplets and αSMA) in WI38 cells; format: cell-based, human
# Experimental: Cells were grown in minimum essential medium (MEM) +10% fetal bovine serum at 37° C. in six-well plates, two well slides, and 60-mm and 100-mm culture dishes, as needed. […] Subsequently, the cells were treated with rosiglitazone (RGZ) (1×10^−5 M) (a PPARγ agonist), PTHrP (5×10^−7 M), or DBcAMP (1×10^−5 M) for 7 days, and the expression of PTHrP receptor, PPARγ, ADRP, calponin, and cSMA was determined by Western analysis and immunohistochemistry. Simultaneously, fibroblast function was characterized by measuring their capacity to take up triglycerides. Some experiments were performed in the presence of a specific PPARγ antagonist, GW9662. Medium containing fresh chemicals was added daily, and at the end of the experimental period the cells were processed as needed.
# The lipogenic and myogenic status of cultured WI38 cells was assessed by simultaneous staining for either lipid droplets or ADRP and αSMA. Lipids were detected by using either oil red 0 staining or ADRP expression (polyclonal anti-ADRP 1:500), and αSMA expression was assessed by using anti-αSMA (1:1000, mouse monoclonal IgG2a, Sigma, catalog No. A2547) primary antibody. […] At the end of the experimental period, slides were fixed in freshly prepared 4% paraformaldehyde. […] Slides were rinsed three times for 5 min and then mounted and visualized under a fluorescence microscope.
# [8] = tested on: WI38 cells; experiment: Reversal experiment, triglyceride (triolein) uptake by WI38 cells; format: cell-based, human; conditions: nicotine 7 days
smiles,measurement,setting,value
CN1CCCC1c1cccnc1 (centres unmarked) [nicotine],choline incorporation,[1],significantly increased
same,increase in alveolar type II cell proliferation vs control group,"[2]; nicotine 1 mg/kg i.p. once daily to dam, e6 to e20",2 fold
same,ATII cell proliferation (PCNA and SP-C staining),"[2]; nicotine 1 mg/kg in utero, P<0.05, n=4",almost twofold increase
same,decrease in PTHrP binding to its receptor,[3],30%
same,expression of nACh receptors α3 and α7,[4],significant increases
same,steady-state SP-B protein level,"[5]; in utero nicotine, P<0.05, n=3",significantly increased
same,CCT-α protein expression,[5]; in vivo nicotine exposure,significant increase
same,SP-B expression,[6]; direct nicotine treatment of cultured ATII cells,significant increase
same,CCT-α protein expression,[6]; in vitro nicotine exposure,significant increase
same,"ADRP, lipid droplet and αSMA staining",[7],marked decreases in ADRP and lipid droplet staining and a marked increase in αSMA staining
same,triolein uptake,[8],significant decrease
